Experimental data as given in US9000135B2, “Self-reactive arms and prodrugs comprising same” (Centre Nationale de Recherche Scientifique, priority 2010, dated 2015).

Legend:
Format in all cases: cell-based
[1] = system: HeLa cells, expressing the folic acid receptor (FR); test: Internalization monitored by confocal microscopy (doxorubicin fluorescence) in HeLa cells; conditions: 10 μM
Description: (§1) Compound (7) was tested on two cell lines, the HeLa cells, expressing the folic acid receptor (FR), and the A549 cells expressing little or none of these receptors.
(§2) The HeLa and A549 cells were cultured in RPMI 1640 medium supplemented with 10% fetal calf serum (InVitrogen) at 37° C. in an atmosphere containing 5% CO2.
(§3) For confocal microscopy experiments, the cells were cultured in a glass-bottomed bowl.
(§4) The cells were incubated for 1 hour in the presence or absence of 1 μm of folic acid before being treated with either a buffer solution (control), or doxorubicin at 10 μM, or with a doxorubicin-galactose (DOX-GAL) conjugate, compound (5), in a concentration of 10 μM, or compound (7) (DOX-GAL-AF) in a concentration of 10 μM, or compound (7) in the presence of folic acid with respective concentrations of 10 μM.
(§5) After treatment, the cells were rinsed with PBS and fixed with a PBS-3.7% formaldehyde solution for 20 minutes, at room temperature. […]
(§6) The internalization by endocytosis of doxorobucin of the compounds (5) and (7) and of compound (7) in the presence of folic acid (AF) was monitored by confocal microscopy using the fluorescence of doxorubicin in the Hela cells and in the A549 cells.

[2] = system: A549 cells expressing little or none of these receptors; test: Internalization monitored by confocal microscopy (doxorubicin fluorescence) in A549 cells; conditions: 10 μM
Description: as §1, §2, §3, §4, §5, §6

A549 cells = test: Proliferation test (XTT) on A549 cells; conditions: 0 to 1000 nM, 4 days
Description: (§7) In order to check that the endocytosis of compound (7) DOX-GAL-AF is followed by release of the drug in the intracellular medium, proliferation tests were performed on Hela and A549 cells incubated in the presence of increasing concentrations (0 to 1000 nM) of doxorubicin (DOX), compound (5) (DOX-GAL) and compound (7) (DOX-GAL-AF) for 4 days.
(§8) The cell proliferation kit II (XTT; Roche) was used to evaluate the cellular proliferation. The kit was used following the manufacturer's recommendations.
(§9) In brief, 3×10^3 cells/well were placed on 96 culture plates and then in 100 μl of medium,
(§10) The cells were cultured as previously indicated.
(§11) The cells were cultured for 24 hours before addition of the compounds tested in the indicated concentration.
(§12) After 4 days of treatment, 50 μl of XTT marking mixture were added to the well. The cells were then incubated for 4 hours at 37° C. before the absorbance was determined at 480 nm.
(§13) In order to check that the enzymatic activation of compound (7) DOX-GAF-AF can effectively take place in the cellular environment, cytotoxicity tests were repeated in a culture medium previously supplemented with β-galactosidase (E. coli) (40 U·mL^−1) (curves in dotted lines).

Hela cells = test: Proliferation test (XTT) on Hela cells; conditions: 0 to 1000 nM, 4 days
Description: as §7, §8, §9, §10, §11, §12, §13

SMILES: C#CCC(OC(=O)NC1CC(O[C@H]2C[C@](O)(C(=O)CO)Cc3c(O)c4c(c(O)c32)C(=O)c2c(OC)cccc2C4=O)OC(C)C1O)c1ccc(O[C@@H]2OC(CO)[C@H](O)C(O)C2O)c([N+](=O)[O-])c1 (some centres unmarked) [Compound 5]
- internalization by endocytosis (fluorescence of doxorubicin, confocal microscopy) [1]: not internalized in any of the cell lines
- internalization by endocytosis (fluorescence of doxorubicin, confocal microscopy) [2]: not internalized in any of the cell lines
- toxicity / inhibition of proliferation (in words) (A549 cells): ineffective on the two cell lines
- inhibition of proliferation (in words) (Hela cells): ineffective on the two cell lines

SMILES: COc1cccc2c1C(=O)c1c(O)c3c(c(O)c1C2=O)C[C@@](O)(C(=O)CO)C[C@@H]3O[C@H]1C[C@H](N)[C@H](O)[C@H](C)O1 [doxorubicin]
- internalization by endocytosis (fluorescence of doxorubicin, confocal microscopy) [1]: penetrates non-specifically through the membranes of the two cell lines
- internalization by endocytosis (fluorescence of doxorubicin, confocal microscopy) [2]: penetrates non-specifically through the membranes of the two cell lines
- toxicity / inhibition of proliferation (in words) (A549 cells): inhibits the proliferation of these two lines
- inhibition of proliferation (in words) (Hela cells): inhibits the proliferation of these two lines
